{
  "source": "patent US20260345488A1",
  "about": "“PHARMACEUTICAL FORMULATIONS” (Gelteq Limited, priority 2023, published 2026)",
  "data": [
    {"experiment": "Compatibility of pH adjustors with the formulation", "format": "physicochemical", "conditions": "in ibuprofen gel formulation", "experimental": "Hydrochloric acid and citric acid were tested as pH adjustors. […] As a consequence, it was selected as the preferred pH adjusting agent. Further details of the ibuprofen gels of the invention are set out in Example 1.", "values": [
      {"smiles": "Cl", "note": "[Hydrochloric acid]", "compatibility / effect as pH adjustor": "precipitated and was not compatible with the formulation"},
      {"smiles": "O=C(O)CC(O)(CC(=O)O)C(=O)O", "note": "[Citric acid]", "compatibility / effect as pH adjustor": "changed the pH significantly"}
    ]},
    {"experiment": "not given", "conditions": "classification on solubility and permeability; cited from earlier work", "values": [
      {"smiles": "NS(=O)(=O)c1cc2c(cc1Cl)NCNS2(=O)=O", "note": "[Hydrochlorothiazide]", "BCS class": "class II"},
      {"smiles": "COc1ccc2cc([C@H](C)C(=O)O)ccc2c1", "note": "[Naproxen]", "BCS class": "Class II"},
      {"smiles": "c1ccc(-c2ccc(C(c3ccccc3)n3ccnc3)cc2)cc1", "note": "(centres unmarked) [Bifonazole]", "BCS class": "Class IV"},
      {"smiles": "O=C(O)Cc1ccccc1Nc1c(Cl)cccc1Cl", "note": "[Diclofenac]", "BCS class": "class II"},
      {"smiles": "CN/C(=N/CCSCc1nc[nH]c1C)NC#N", "note": "[Cimetidine]", "BCS class": "Class III"},
      {"smiles": "COCCc1ccc(OCC(O)CNC(C)C)cc1", "note": "(centres unmarked) [Metoprolol]", "BCS class": "Class I"}
    ]}
  ]
}
